In this assay the target is T1, Human MTHFD2 (Homo sapiens, UniProt P13995).
T1 construct: residues 36-350 in Uniport ID P13995; His6 (N); made in house; host or cells: E. coli
T1 sequence (P13995 36-350): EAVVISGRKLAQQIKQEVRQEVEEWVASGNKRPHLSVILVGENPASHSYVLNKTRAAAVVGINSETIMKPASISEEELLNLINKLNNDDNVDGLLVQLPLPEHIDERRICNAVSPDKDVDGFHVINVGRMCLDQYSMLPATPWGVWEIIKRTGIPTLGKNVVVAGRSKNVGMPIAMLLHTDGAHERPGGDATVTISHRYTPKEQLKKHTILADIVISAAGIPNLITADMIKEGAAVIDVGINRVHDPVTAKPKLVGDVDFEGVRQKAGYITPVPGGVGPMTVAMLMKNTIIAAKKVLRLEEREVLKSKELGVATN
As to the kind of experiment: MTHFD2 Activity Assay (dehydrogenase activity, diaphorase/resazurin coupled fluorescence). Format: biochemical. Conditions: inhibitory activity (IC50 and/or binding constant); 0.2 nM MTHFD2, 11 concentrations. Put shortly:
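Resorufin fluorescence (ex 525, em 598 nm) reports NADH formed by the dehydrogenase via diaphorase coupling. Enzyme (0.2 nM, residues 36-350, N-His6) sat with compound 15 min before 70 μM CH2-THF and 1 mM NAD+ started a 30 min reaction. IC50s come from 4-parameter fits over 11 concentrations.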
Compound `Cn1c(Nc2cccc(-c3ccccc3)n2)nc2c1c(=O)n(Cc1cc3c(Cl)cccc3[nH]1)c(=O)n2C` [Example 399, 1-[(4-chloro-1H-indol-2-yl)methyl]-3,7-dimethyl-8-[(6-phenyl-2-pyridyl)amino]purine-2,6-dione] returned an IC50 of 1000 to 5000 nM.

Take `Cn1c(N2CCC(O)CC2)nc2c1c(=O)n(Cc1cc3ccccc3[nH]1)c(=O)n2C` [Example 191, 1-((1H-indol-2-yl)methyl)-8-(4-hydroxypiperidin-1-yl)-3,7-dimethyl-1H-purine-2,6(3H,7H)-dione]: the IC50 was in the range of 10 to 1000 nM.

`Cn1c(N[C@H]2CC[C@@H](C(=O)O)CC2)nc2c1c(=O)n(Cc1ccc(Cl)c(Cl)c1)c(=O)n2C` [Example 264, (±)-(cis)-4-((1-(3,4-dichlorobenzyl)-3,7-dimethyl-2,6-dioxo-2,3,6,7-tetrahydro-1H-purin-8-yl)amino)cyclohexanecarboxylic acid] showed an IC50 of 10 to 1000 nM.

The compound `Cc1c(Cn2c(=O)c3c(nc(Nc4ccncc4)n3C)n(C)c2=O)[nH]c2ccccc12` [Example 340, 3,7-dimethyl-1-((3-methyl-1H-indol-2-yl)methyl)-8-(pyridin-4-ylamino)-1H-purine-2,6(3H,7H)-dione] gave an IC50 of 10 to 1000 nM.

On to `Cn1c(NCCCO)nc2c1c(=O)n(Cc1ccc(Cl)c(F)c1)c(=O)n2C` [Example 23, 1-[(4-chloro-3-fluorophenyl)methyl]-8-[(3-hydroxypropyl)amino]-3,7-dimethyl-2,3,6,7-tetrahydro-1H-purine-2,6-dione], for which the IC50 was in the range of 1000 to 5000 nM.

As to `Cn1c(Nc2ccc3c(c2)C(CC(=O)O)CC3)nc2c1c(=O)n(Cc1ccc(Cl)c(Cl)c1)c(=O)n2C` (stereo not drawn) [Example 314, 2-(6-((1-(3,4-dichlorobenzyl)-3,7-dimethyl-2,6-dioxo-2,3,6,7-tetrahydro-1H-purin-8-yl)amino)-2,3-dihydro-1H-inden-1-yl)acetic acid], the IC50 fell in the range of 10 to 1000 nM.

The compound `Cn1c([C@@H](N)Cc2ccncc2)nc2c1c(=O)n(Cc1cc3c(Cl)cccc3[nH]1)c(=O)n2C` [Example 449, (S)-8-(1-amino-2-(pyridin-4-yl)ethyl)-1-((4-chloro-1H-indol-2-yl)methyl)-3,7-dimethyl-1H-purine-2,6(3H,7H)-dione] showed an IC50 of 10 to 1000 nM.

`Cn1c(Nc2ccncc2)nc2c1c(=O)n(Cc1cc3c(Cl)ccc(Cl)c3[nH]1)c(=O)n2C` [Example 477, 1-((4,7-dichloro-1H-indol-2-yl)methyl)-3,7-dimethyl-8-(pyridin-4-ylamino)-1H-purine-2,6(3H,7H)-dione] returned an IC50 of 10 to 1000 nM.

`Cn1c(Nc2ccnc(C(=O)O)c2)nc2c1c(=O)n(Cc1ccc(Cl)c(Cl)c1)c(=O)n2C` [Example 303, 4-(1-(3,4-dichlorobenzyl)-3,7-dimethyl-2,6-dioxo-2,3,6,7-tetrahydro-1H-purin-8-ylamino)picolinic acid] yielded an IC50 of 1000 to 5000 nM.

Consider `Cn1c(Nc2cccc([C@@H]3C[C@H]3C(=O)O)n2)nc2c1c(=O)n(Cc1cc3c(Cl)cccc3[nH]1)c(=O)n2C` (racemic) [Example 315, (±)-trans-2-[6-[[1-[(4-chloro-1H-indol-2-yl)methyl]-3,7-dimethyl-2,6-dioxo-purin-8-yl]amino]-2-pyridyl]cyclopropanecarboxylic acid], for which the IC50 lay in the range of 10 to 1000 nM.

Turning to `Cc1cccc2[nH]c(Cn3c(=O)c4c(nc(N[C@H]5C[C@H](CO)C5)n4C)n(C)c3=O)cc12` [Example 327, 8-((1R,3R)-3-(hydroxymethyl)cyclobutylamino)-3,7-dimethyl-1-((4-methyl-1H-indol-2-yl)methyl)-1H-purine-2,6(3H,7H)-dione], the half-maximal inhibitory concentration (IC50) fell in the range of 10 to 1000 nM.

`Cn1c(Nc2ccnc(CNC(N)=O)n2)nc2c1c(=O)n(Cc1cc3c(Cl)cccc3[nH]1)c(=O)n2C` [Example 462, 1-((4-(1-((4-chloro-1H-indol-2-yl)methyl)-3,7-dimethyl-2,6-dioxo-2,3,6,7-tetrahydro-1H-purin-8-ylamino)pyrimidin-2-yl)methyl)urea]: the IC50 was in the range of 10 to 1000 nM.
